Laboratory results published in ChEMBL document CHEMBL5465560, “Selectivity Literature for EUbOPEN Chemogenomic Library” (2024).

Tests used:
[1] = biological target: T1, Discoidin domain-containing receptor 2 (Homo sapiens) (UniProt Q16832); experiment: Selectivity interaction (KinomeScan (DiscoverX)) EUB0000229b DDR2; settings: at 10 µM
T1 sequence (whole entry): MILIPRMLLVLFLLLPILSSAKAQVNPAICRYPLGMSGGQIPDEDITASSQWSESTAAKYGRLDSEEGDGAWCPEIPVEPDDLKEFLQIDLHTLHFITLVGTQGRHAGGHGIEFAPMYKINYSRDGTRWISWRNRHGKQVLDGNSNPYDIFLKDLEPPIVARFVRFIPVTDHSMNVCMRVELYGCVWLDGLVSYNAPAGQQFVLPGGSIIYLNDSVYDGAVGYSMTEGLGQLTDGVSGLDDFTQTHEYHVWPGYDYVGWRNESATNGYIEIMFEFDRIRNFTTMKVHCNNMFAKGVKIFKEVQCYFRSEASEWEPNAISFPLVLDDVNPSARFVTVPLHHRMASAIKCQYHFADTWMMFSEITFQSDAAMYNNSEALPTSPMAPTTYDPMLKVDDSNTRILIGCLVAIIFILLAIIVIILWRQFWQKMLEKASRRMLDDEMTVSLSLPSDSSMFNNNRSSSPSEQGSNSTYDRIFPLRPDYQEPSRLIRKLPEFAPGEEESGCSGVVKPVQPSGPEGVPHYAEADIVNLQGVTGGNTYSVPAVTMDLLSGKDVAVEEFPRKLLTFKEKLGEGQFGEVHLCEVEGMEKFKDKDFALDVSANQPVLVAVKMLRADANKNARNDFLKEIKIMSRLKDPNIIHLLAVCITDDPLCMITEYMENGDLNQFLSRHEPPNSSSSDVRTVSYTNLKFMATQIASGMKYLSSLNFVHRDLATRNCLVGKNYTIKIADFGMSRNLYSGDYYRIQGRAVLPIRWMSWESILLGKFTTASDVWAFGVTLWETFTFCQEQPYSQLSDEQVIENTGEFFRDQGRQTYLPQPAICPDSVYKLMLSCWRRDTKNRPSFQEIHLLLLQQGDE

[2] = biological target: T2, Mitogen-activated protein kinase kinase kinase 5 (Homo sapiens) (UniProt Q99683); experiment: Selectivity interaction (KinomeScan (DiscoverX)) EUB0000045b MAP3K5
T2 sequence (whole entry): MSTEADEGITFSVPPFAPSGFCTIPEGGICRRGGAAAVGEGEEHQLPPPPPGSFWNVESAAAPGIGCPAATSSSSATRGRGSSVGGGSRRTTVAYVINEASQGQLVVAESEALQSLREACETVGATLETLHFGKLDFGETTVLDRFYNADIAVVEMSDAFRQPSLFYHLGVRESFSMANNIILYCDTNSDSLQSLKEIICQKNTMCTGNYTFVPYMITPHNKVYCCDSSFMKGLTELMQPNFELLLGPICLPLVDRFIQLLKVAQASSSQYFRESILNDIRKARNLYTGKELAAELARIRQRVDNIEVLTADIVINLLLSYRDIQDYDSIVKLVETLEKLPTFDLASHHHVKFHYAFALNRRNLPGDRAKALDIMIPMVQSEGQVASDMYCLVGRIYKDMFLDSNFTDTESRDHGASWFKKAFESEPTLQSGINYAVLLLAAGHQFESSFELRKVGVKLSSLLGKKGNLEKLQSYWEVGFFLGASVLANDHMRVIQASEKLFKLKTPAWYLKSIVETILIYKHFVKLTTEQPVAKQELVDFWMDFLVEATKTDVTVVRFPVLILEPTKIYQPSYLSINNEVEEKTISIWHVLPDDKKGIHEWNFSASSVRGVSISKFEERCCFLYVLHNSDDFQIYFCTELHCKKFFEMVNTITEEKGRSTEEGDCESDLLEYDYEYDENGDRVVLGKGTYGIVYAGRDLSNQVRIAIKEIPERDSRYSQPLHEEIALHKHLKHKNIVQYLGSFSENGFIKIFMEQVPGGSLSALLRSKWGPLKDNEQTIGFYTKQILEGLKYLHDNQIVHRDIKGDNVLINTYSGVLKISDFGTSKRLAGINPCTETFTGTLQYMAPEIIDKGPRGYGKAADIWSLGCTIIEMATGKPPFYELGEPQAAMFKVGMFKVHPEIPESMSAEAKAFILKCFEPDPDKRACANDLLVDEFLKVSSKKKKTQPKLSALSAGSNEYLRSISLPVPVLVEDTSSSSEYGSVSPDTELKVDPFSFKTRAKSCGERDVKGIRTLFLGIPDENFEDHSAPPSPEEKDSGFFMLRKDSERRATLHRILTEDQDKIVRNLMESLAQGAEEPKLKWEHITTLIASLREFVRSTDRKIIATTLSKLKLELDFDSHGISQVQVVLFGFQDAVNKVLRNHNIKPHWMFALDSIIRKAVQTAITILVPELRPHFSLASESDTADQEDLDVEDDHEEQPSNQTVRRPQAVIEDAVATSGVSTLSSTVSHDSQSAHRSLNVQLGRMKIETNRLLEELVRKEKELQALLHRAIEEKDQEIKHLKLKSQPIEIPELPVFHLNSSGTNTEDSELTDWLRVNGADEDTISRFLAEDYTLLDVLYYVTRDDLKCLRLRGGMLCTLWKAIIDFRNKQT

[3] = system: Proto-oncogene tyrosine-protein kinase receptor Ret (Homo sapiens), P07949 [S891A]; experiment: (§1) Selectivity interaction (ProQinase) EUB0000171b RET
Sequence of Proto-oncogene tyrosine-protein kinase receptor Ret (Homo sapiens), P07949 [S891A] (P07949 whole entry S891A): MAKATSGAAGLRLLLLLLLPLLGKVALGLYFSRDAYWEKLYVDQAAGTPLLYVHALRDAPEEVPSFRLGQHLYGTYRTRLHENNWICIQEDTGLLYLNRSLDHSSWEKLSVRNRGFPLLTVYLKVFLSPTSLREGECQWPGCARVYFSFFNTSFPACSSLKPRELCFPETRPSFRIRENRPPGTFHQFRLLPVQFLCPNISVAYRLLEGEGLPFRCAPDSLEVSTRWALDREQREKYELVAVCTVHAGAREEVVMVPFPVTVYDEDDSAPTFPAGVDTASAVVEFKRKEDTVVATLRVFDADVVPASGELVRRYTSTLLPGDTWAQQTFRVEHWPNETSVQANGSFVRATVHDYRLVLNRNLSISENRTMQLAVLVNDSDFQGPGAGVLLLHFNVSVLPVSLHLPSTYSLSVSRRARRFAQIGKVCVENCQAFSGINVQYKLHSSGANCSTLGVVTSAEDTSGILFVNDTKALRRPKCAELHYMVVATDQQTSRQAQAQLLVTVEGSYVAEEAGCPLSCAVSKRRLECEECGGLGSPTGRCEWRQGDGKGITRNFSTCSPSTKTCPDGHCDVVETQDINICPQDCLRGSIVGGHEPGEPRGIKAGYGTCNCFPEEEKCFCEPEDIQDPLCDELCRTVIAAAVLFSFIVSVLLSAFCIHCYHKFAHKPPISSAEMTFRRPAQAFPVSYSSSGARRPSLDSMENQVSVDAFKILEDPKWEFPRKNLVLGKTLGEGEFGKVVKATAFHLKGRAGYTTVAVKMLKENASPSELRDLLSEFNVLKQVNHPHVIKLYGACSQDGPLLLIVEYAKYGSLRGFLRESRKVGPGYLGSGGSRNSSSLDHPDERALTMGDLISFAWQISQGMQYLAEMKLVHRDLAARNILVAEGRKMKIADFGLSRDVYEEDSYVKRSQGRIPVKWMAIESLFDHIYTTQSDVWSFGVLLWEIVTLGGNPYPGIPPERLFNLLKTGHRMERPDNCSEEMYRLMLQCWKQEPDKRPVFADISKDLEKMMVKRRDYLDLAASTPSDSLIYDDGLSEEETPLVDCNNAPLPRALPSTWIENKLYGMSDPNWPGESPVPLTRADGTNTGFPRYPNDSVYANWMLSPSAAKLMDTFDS

[4] = system: Proto-oncogene tyrosine-protein kinase receptor Ret (Homo sapiens), P07949 [G691S]; experiment: as §1
Sequence of Proto-oncogene tyrosine-protein kinase receptor Ret (Homo sapiens), P07949 [G691S] (P07949 whole entry G691S): as the sequence (P07949 whole entry S891A) above, with G691S, A891S counted along it

[5] = biological target: Proto-oncogene tyrosine-protein kinase receptor Ret (Homo sapiens, UniProt P07949); experiment: as §1
Sequence of Proto-oncogene tyrosine-protein kinase receptor Ret (P07949 whole entry): as the sequence (P07949 whole entry S891A) above, with A891S counted along it

[6] = system: Proto-oncogene tyrosine-protein kinase receptor Ret (Homo sapiens), P07949 [V804L]; experiment: as §1
Sequence of Proto-oncogene tyrosine-protein kinase receptor Ret (Homo sapiens), P07949 [V804L] (P07949 whole entry V804L): as the sequence (P07949 whole entry S891A) above, with V804L, A891S counted along it

[7] = system: Proto-oncogene tyrosine-protein kinase receptor Ret (Homo sapiens), P07949 [R813Q]; experiment: as §1
Sequence of Proto-oncogene tyrosine-protein kinase receptor Ret (Homo sapiens), P07949 [R813Q] (P07949 whole entry R813Q): as the sequence (P07949 whole entry S891A) above, with R813Q, A891S counted along it

[8] = system: Proto-oncogene tyrosine-protein kinase receptor Ret (Homo sapiens), P07949 [Y791F]; experiment: as §1
Sequence of Proto-oncogene tyrosine-protein kinase receptor Ret (Homo sapiens), P07949 [Y791F] (P07949 whole entry Y791F): as the sequence (P07949 whole entry S891A) above, with Y791F, A891S counted along it

[9] = system: Proto-oncogene tyrosine-protein kinase receptor Ret (Homo sapiens), P07949 [R749T]; experiment: as §1
Sequence of Proto-oncogene tyrosine-protein kinase receptor Ret (Homo sapiens), P07949 [R749T] (P07949 whole entry R749T): as the sequence (P07949 whole entry S891A) above, with R749T, A891S counted along it

[10] = system: Proto-oncogene tyrosine-protein kinase receptor Ret (Homo sapiens), P07949 [E762Q]; experiment: as §1
Sequence of Proto-oncogene tyrosine-protein kinase receptor Ret (Homo sapiens), P07949 [E762Q] (P07949 61-1114 E762Q): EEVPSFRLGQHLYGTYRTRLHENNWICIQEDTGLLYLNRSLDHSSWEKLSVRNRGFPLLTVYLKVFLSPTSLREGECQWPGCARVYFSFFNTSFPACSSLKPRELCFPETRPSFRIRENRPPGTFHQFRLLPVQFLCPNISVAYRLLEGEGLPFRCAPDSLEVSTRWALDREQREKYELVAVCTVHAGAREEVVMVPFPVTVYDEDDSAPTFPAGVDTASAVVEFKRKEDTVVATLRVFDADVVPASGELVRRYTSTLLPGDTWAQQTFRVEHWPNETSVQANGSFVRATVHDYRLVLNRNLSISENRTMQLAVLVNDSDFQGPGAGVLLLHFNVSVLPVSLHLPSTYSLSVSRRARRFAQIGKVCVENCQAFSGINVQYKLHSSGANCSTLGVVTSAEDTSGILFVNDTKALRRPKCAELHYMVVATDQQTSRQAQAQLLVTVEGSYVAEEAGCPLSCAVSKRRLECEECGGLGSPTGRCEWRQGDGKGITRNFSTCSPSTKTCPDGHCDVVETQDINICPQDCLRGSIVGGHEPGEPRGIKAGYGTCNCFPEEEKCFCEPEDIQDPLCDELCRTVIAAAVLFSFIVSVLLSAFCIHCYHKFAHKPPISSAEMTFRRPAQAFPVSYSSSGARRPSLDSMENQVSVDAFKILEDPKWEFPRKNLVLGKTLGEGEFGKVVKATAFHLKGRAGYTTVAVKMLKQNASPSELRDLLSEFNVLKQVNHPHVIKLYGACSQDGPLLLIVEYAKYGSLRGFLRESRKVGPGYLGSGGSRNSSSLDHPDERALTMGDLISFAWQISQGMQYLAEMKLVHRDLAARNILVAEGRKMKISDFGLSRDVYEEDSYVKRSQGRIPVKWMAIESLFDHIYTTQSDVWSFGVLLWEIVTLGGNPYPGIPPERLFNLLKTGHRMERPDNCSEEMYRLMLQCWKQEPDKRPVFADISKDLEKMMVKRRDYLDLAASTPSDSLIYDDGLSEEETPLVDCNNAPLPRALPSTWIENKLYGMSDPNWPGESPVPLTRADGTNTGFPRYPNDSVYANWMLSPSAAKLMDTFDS

[11] = system: Proto-oncogene tyrosine-protein kinase receptor Ret (Homo sapiens), P07949 [V804M]; experiment: as §1
Sequence of Proto-oncogene tyrosine-protein kinase receptor Ret (Homo sapiens), P07949 [V804M] (P07949 whole entry V804M): as the sequence (P07949 whole entry S891A) above, with V804M, A891S counted along it

[12] = system: Proto-oncogene tyrosine-protein kinase receptor Ret (Homo sapiens), P07949 [M918T]; experiment: as §1
Sequence of Proto-oncogene tyrosine-protein kinase receptor Ret (Homo sapiens), P07949 [M918T] (P07949 whole entry M918T): as the sequence (P07949 whole entry S891A) above, with A891S, M918T counted along it

Structure (SMILES): COc1cc(N(C)c2ccnc3ccc(C(F)(F)F)cc23)cc(OC)c1OC
- % binding [1]: 93%

Structure (SMILES): C=CC(=O)Nc1cc(-n2c(=O)ccc3cnc4ccc(-c5ccc(NS(C)(=O)=O)cc5)cc4c32)ccc1C
- % of control ([2]; at 1 µM): 100%
- % of control ([2]; at 10 µM): 100%

Structure (SMILES): C=CC(=O)Nc1cccc(C(=O)Nc2ccc(Nc3cc(-c4[nH]c(SC)nc4C)ccn3)cc2)c1
- % of control ([3]; at 1 µM): 95%
- % of control ([3]; at 5 µM): 74%
- % of control ([4]; at 1 µM): 90%
- % of control ([4]; at 5 µM): 77%
- % of control ([5]; at 1 µM): 87%
- % of control ([5]; at 5 µM): 72%
- % of control ([6]; at 1 µM): 88%
- % of control ([6]; at 5 µM): 80%
- % of control ([7]; at 1 µM): 98%
- % of control ([7]; at 5 µM): 75%
- % of control ([8]; at 1 µM): 96%
- % of control ([8]; at 5 µM): 71%
- % of control ([9]; at 1 µM): 96%
- % of control ([9]; at 5 µM): 76%
- % of control ([10]; at 1 µM): 95%
- % of control ([10]; at 5 µM): 78%
- % of control ([11]; at 1 µM): 98%
- % of control ([11]; at 5 µM): 90%
- % of control ([12]; at 1 µM): 97%
- % of control ([12]; at 5 µM): 82%
